Our source for the inhibition values is patent EP0853084B1, “Substituted purine derivatives as vitronectin receptor antagonists” (HOECHST AKTIENGESELLSCHAFT, priority 1996, dated 1998).

Chain of humanen Vitronectinrezeptor (VnR) αvβ3 (P06756 31-889 limits assumed): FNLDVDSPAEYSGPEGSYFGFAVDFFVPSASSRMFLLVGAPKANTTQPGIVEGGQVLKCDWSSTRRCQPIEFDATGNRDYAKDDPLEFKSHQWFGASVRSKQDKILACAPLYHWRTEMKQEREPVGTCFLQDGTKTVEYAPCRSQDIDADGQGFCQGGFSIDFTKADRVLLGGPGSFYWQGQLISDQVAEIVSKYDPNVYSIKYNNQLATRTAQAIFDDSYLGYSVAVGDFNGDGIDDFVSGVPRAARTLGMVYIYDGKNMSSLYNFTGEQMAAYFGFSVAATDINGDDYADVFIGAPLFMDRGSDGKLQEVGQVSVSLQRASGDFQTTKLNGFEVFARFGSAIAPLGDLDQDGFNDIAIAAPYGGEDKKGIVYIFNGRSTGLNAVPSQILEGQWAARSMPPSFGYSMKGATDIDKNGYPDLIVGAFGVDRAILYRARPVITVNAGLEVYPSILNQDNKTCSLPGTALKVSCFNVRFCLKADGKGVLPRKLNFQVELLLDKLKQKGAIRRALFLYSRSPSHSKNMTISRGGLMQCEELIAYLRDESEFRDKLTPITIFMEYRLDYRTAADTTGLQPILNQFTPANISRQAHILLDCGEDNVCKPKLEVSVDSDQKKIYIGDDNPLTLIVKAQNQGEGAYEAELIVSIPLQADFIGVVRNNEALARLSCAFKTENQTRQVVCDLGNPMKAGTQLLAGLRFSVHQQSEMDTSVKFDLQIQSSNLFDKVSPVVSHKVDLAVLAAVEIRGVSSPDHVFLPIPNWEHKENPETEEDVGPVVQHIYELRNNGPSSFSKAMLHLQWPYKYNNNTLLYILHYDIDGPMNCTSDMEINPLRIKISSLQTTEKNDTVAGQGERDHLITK
Chain of humanen Vitronectinrezeptor (VnR) αvβ3 (P06756 891-1048 partner limits assumed): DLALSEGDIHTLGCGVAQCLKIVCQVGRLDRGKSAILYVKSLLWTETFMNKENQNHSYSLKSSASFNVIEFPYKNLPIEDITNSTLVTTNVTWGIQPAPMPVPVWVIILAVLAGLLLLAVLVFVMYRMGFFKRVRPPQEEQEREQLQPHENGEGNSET
Chain of humanen Vitronectinrezeptor (VnR) αvβ3 (P05106 27-788): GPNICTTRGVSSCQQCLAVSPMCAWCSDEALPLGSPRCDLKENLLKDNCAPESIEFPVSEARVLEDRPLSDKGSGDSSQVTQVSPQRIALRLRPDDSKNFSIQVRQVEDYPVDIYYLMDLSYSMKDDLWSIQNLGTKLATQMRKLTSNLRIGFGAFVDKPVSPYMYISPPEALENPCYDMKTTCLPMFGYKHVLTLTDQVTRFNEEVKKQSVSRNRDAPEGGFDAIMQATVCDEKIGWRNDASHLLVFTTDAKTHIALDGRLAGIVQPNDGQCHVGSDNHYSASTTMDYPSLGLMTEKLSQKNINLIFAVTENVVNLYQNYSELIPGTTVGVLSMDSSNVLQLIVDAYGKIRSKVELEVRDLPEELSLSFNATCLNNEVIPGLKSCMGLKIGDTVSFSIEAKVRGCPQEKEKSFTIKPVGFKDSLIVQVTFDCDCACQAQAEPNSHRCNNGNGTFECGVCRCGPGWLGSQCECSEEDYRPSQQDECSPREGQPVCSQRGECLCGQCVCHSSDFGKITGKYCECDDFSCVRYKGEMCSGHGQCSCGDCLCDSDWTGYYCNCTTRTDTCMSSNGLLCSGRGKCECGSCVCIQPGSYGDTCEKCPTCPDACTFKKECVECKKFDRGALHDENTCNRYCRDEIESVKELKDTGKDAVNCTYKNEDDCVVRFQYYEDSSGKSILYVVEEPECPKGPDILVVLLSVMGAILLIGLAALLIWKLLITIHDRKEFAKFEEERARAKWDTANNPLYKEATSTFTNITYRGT

The assay has as its target humanen Vitronectinrezeptor (VnR) αvβ3 (Homo sapiens, UniProt P05106+P06756). The assay is described as follows: Inhibition of binding of Kistrin to human vitronectin receptor (αvβ3 ELISA test, K/VnR). Particulars: 10 µM test compound, read-out: K/VnR Inhibierung bei 10 µM (in %). An excerpt: Als Testmethode, nach der beispielsweise die antagonistische Wirkung der erfindungsgemäßen Verbindungen auf den Vitronectinrezeptor αvβ3 bestimmt werden kann, wird nachfolgend die Inhibierung der Bindung von Kistrin an humanen Vitronectinrezeptor (VnR) beschrieben (αvβ3-ELISA-Test; die Testmethode wird bei der Auflistung der Testergebnisse mit "K/VnR" abgekürzt).
Kistrin wird nach den Methoden von Dennis et al., wie in Proc. Natl. Acad. Sci. USA 1989, 87, 2471-2475 und PROTEINS: Structure, Function and Genetics 1993, 15, 312-321, beschrieben, gereinigt.
Humaner Vitronectinrezeptor wird aus der menschlichen Plazenta nach der Methode von Pytela et al., Methods Enzymol. 1987, 14.4, 475 gewonnen. Humaner Vitronectinrezeptor αvβ3 kann auch aus einigen Zellinien (zum Beispiel aus 293 Zellen, einer humanen embryonalen Nierenzellinie), die mit DNA Sequenzen für beide Untereinheiten αv und β3 des Vitronectinrezeptors co-transfziert sind, gewonnen werden. Die Untereinheiten wurden mit Octylglycosid extrahiert und anschließend über Concanavalin A, Heparin-Sepharose und S-300 chromatographiert.
Murine monoklonale Antikörper, spezifisch für die β3 Untereinheit des Vitronectinrezeptors, werden nach der Methode von Newman et al., Blood, 1985, 227-232, oder nach einem ähnlichen Verfahren hergestellt. Das Kaninchen Fab 2 anti-Maus Fc Konjugat an Meerrettich-Peroxidase (anti-Maus Fc HRP) wurde von Pel Freeze (Katalog Nr. 715 305-1) bezogen.
Die Fähigkeit von Substanzen die Bindung von Kistrin an den Vitronectinrezeptor zu inhibieren, kann mit einem ELISA-Test ermittelt werden. Zu diesem Zweck werden Nunc 96 well-Mikrotiterplatten mit einer Lösung von Kistrin (0.002 mg/ml) nach der Methode von Dennis et al., wie in PROTEINS: Structure, Function and Genetics 1993, 15, 312-321, beschrieben, belegt. Die Platten werden dann zweimal mit PBS/0.05 % Tween-20 gewaschen und durch Inkubieren (60 min) mit RinderserumAlbumin (BSA, 0.5 %, RIA Güteklasse oder besser) in Tris-HCl (50 mM), NaCl (100 mM), MgCl2 (1 mM), CaCl2 (1 mM), MnCl2 (1 mM), pH 7, geblockt. Man stellt Lösungen von bekannten Inhibitoren und von den Testsubstanzen in Konzentrationen von 2 x 10^-12 bis 2 x 10^-6 mol/l in Assay-Puffer (BSA (0.5 %, RIA-Güteklasse oder besser) in Tris-HCl (50 mM), NaCl (100 mM), MgCl2 (1 mM), CaCl2 (1 mM), MnCl2 (1 mM), pH 7) her. Die geblockten Platten werden entleert, und jeweils 0.025 ml dieser Lösung, die eine definierte Konzentration (2 x 10^-12 bis 2 x 10^-6 mol/l) entweder an einem bekannten Inhibitor oder an einer Testsubstanz enthält, werden in jedes well gegeben. 0.025 ml einer Lösung des Vitronectinrezeptors im Testpuffer (0.03 mg/ml) werden in jedes well der Platte pipettiert und die Platte wird auf einem Schüttler 60-180 min bei Raumtemperatur inkubiert. In der Zwischenzeit wird eine Lösung (6 ml/Platte) eines für die β3-Untereinheit des Vitronectinrezeptors spezifischen murinen monoklonalen Antikörpers im Assay-Puffer (0.0015 mg/ml) hergestellt. Zu dieser Lösung gibt man einen zweiten Kaninchen-Antikörper (0.001 ml Stammlösung/6 ml der murinen monoklonalen anti-β3-Antikörper-Lösung), der ein anti-Maus Fc HRP Antikörper Konjugat darstellt, und dieses Gemisch aus murinem anti-β3 Antikörper und Kaninchen anti-Maus Fc HRP Antikörper Konjugat läßt man während der Zeit der Rezeptor-Inhibitor-Inkubation inkubieren. Die Testplatten werden viermal mit PBS-Lösung, die 0.05 % Tween-20 enthält, gewaschen und man pipettiert jeweils 0.05 ml/well der Antikörpermischung in jedes well der Platte und inkubiert 60-180 min. Die Platte wird viermal mit PBS/0.05 % Tween-20 gewaschen und anschließend mit 0.05 ml/well einer PBS-Lösung, die 0.67 mg/ml o-Phenylendiamin und 0.012 % H2O2 enthält, entwickelt. Alternativ hierzu kann o-Phenylendiamin in einem Puffer (pH 5) eingesetzt werden, der Na3PO4 und Zitronensäure enthält. Die Farbentwicklung wird mit 1 N H2SO4 (0.05 ml/well) gestoppt. […]
For orientation: In an ELISA, binding on a coated surface is turned into a signal by an enzyme label.
As for `O=C(N[C@@H](CNc1ncnc2c1ncn2CCCCCNC1=NCCN1)C(=O)O)OCc1ccccc1` [Beispiel 15, N^6-(3-(2S-(Benzyloxycarbonylamino)propionsäure))-N^9-(1-(5-(4,5-dihydro-1H-imidazol-2-ylamino)pentyl))-adenin], the inhibition at 10 µM came to 92%.

Turning to `O=C(N[C@H](Cn1cnc2c(N3CCC(CNC4=NCCN4)CC3)ncnc21)C(=O)O)OCc1ccccc1` [Beispiel 25], the inhibition at 10 µM came out at 89%.

Regarding `N=C(N)NCCCCNc1ncnc2c1ncn2C[C@H](NC(=O)OCc1ccccc1)C(=O)O` [Beispiel 2, N^6-(1-(4-Guanidinobutyl))-N^9-(3-(2S-(benzyloxycarbonylamino)propionsäure))-adenin], the inhibition at 10 µM was 80%.

For the compound `N=C(N)NCCCCn1cnc2c(NC[C@H](NC(=O)OCc3ccccc3)C(=O)O)ncnc21` [Beispiel 17, N^6-(3-(2S-(Benzyloxycarbonylamino)propionsäure))-N^9-(1-(4-guanidinylbutyl))-adenin], the inhibition at 10 µM was determined as 92%.

For the compound `NCCCn1cnc2c(NC[C@H](NC(=O)OCc3ccccc3)C(=O)O)ncnc21` [Beispiel 16b, N^6-(3-(2S-(Benzyloxycarbonylamino)propionsäure))-N^9-(1-(3-aminopropyl))-adenin], the inhibition at 10 µM was 29%.

On to `O=C(N[C@@H](CNc1ncnc2c1ncn2CCCCNC1=NCCN1)C(=O)O)OCc1ccccc1` [Beispiel 18], for which the inhibition at 10 µM came out at 95%.

As for `N=C(N)NCCCCCn1cnc2c(NC[C@H](NC(=O)OCc3ccccc3)C(=O)O)ncnc21` [Beispiel 14, N^6-(3-(2S-(Benzyloxycarbonylamino)propionsäure))-N^9-(1-(5-guanidinylpentyl))-adenin], the inhibition at 10 µM was determined as 84%.

Take `N=C(N)NCC1CCN(c2ncnc3c2ncn3C[C@H](NC(=O)OCc2ccccc2)C(=O)O)CC1` [Beispiel 26, 2S-Benzyloxycarbonylamino-3-(6-(4-(guanidinomethyl)-piperidin-1-yl)-purin-9-yl)-propionsäure]: the inhibition at 10 µM is 91%.

For the compound `O=C(N[C@@H](Cn1cnc2c(N3CCC(CNC4=NCCN4)CC3)ncnc21)C(=O)O)OCc1ccccc1` [Beispiel 24, 2S-Benzyloxycarbonylamino-3-(6-(4-((4,5-dihydro-1H-imidazol-2-ylamino)-methyl)-piperidin-1-yl)-purin-9-yl)-propionsäure], the inhibition at 10 µM came to 95%.

Regarding `N=C(N)NCCCn1cnc2c(NC[C@H](NC(=O)OCc3ccccc3)C(=O)O)ncnc21` [Beispiel 16, N^6-(3-(2S-(Benzyloxycarbonylamino)propionsäure))-N^9-(1-(3-guanidinylpropyl))-adenin], the inhibition at 10 µM was 85%.

Regarding `O=C(N[C@@H](Cn1cnc2c(N3CCC(C(=O)NC4=NCCCN4)CC3)ncnc21)C(=O)O)OCc1ccccc1` [Beispiel 19, 2S-Benzyloxycarbonylamino-3-(6-(4-(1,4,5,6-tetrahydropyrimidin-2-ylcarbamoyl)-piperdin-1-yl)-purin-9-yl)-propionsäure], the inhibition at 10 µM is 97%.

With `N=C(N)NCCCn1cnc2c(NCC[C@H](NC(=O)OCc3ccccc3)C(=O)O)ncnc21` [Beispiel 12, N^6-(4-(2S-(Benzyloxycarbonylamino)buttersäure))-N^9-(1-(3-guanidinylpropyl))-adenin], the inhibition at 10 µM is 86%.

For `O=C(N[C@@H](Cn1cnc2c(NCCCCNc3nc4ccccc4[nH]3)ncnc21)C(=O)O)OCc1ccccc1` [Beispiel 23, 3-(6-((4-(Benzimidazol-2-ylamino)-butyl)-amino)-purin-9-yl)-2S-benzyloxycarbonyl-amino-propionsäure], the inhibition at 10 µM is 93%.

With `O=C(N[C@@H](CCNc1ncnc2c1ncn2CCCNC1=NCCN1)C(=O)O)OCc1ccccc1` [Beispiel 13, N^6-(4-(2S-(Benzyloxycarbonylamino)buttersäure))-N^9-(1-(3-(4,5-dihydro-1H-imidazol-2-ylamino)-propyl))-adenin], the inhibition at 10 µM is 92%.

`N=C(N)NCCCCCNc1ncnc2c1ncn2C[C@H](NC(=O)OCc1ccccc1)C(=O)O` [Beispiel 1, N^6-(1-(5-Guanidinopentyl))-N^9-(3-(2S-(benzyloxycarbonylamino)propionsäure))-adenin]: the inhibition at 10 µM is 75%.

Consider `NCCCCCn1cnc2c(NC[C@H](NC(=O)OCc3ccccc3)C(=O)O)ncnc21` [Beispiel 14c, N^6-(3-(2S-(Benzyloxycarbonylamino)propionsäure))-N^9-(1-(5-aminopentyl))-adenin], for which the inhibition at 10 µM was 22%.

Take `N=C(N)NCCCNc1ncnc2c1ncn2C[C@H](NC(=O)OCc1ccccc1)C(=O)O` [Beispiel 3, N^6-(1-(3-Guanidinopropyl))-N^9-(3-(2S-(benzyloxycarbonylamino)propionsäure))-adenin]: the inhibition at 10 µM was determined as 77%.

As for `O=C(N[C@@H](Cn1cnc2c(NCCCCNC3=NCCN3)ncnc21)C(=O)O)OCc1ccccc1` [Beispiel 4, N^6-(1-(4-(4,5-Dihydro-1H-imidazol-2-ylamino)butyl))-N^9-(3-(2S-(benzyloxycarbonylamino)propionsäure))-adenin], the inhibition at 10 µM was 93%.
